# Key:
# Experiment in all cases: radiometric filter-binding kinase assay, Kinase HotSpot
# Details in all cases: compound 0.5 µM; ATP 10 µM
# [1] = biological target: CDK9 CCNT1 (human) (UniProt P50750+O60563)
# [2] = biological target: MET (human) (UniProt P08581)
# [3] = biological target: MYLK (human) (UniProt Q15746)
# [4] = biological target: PHKG2 (human) (UniProt P15735)
# [5] = biological target: TAOK2 (human) (UniProt Q9UL54)
# [6] = biological target: STK11 (human) (UniProt Q15831)
# [7] = biological target: CSNK1E (human) (UniProt P49674)
# [8] = biological target: EPHA4 (human) (UniProt P54764)
# [9] = biological target: PRKCA (human) (UniProt P17252)
# [10] = biological target: GRK6 (human) (UniProt P43250)
# [11] = biological target: NUAK2 (human) (UniProt Q9H093)
# [12] = biological target: NUAK1 (human) (UniProt O60285)
# [13] = biological target: ACVR1B (human) (UniProt P36896)
# [14] = biological target: MARK2 (human) (UniProt Q7KZI7)
# [15] = biological target: RPS6KA1 KD1 KD2 (human) (UniProt Q15418)
# [16] = biological target: ABL2 (human) (UniProt P42684)
# [17] = biological target: TXK (human) (UniProt P42681)
# [18] = biological target: STK3 (human) (UniProt Q13188)
# [19] = biological target: EPHA8 (human) (UniProt P29322)
# [20] = biological target: MERTK (human) (UniProt Q12866)
# [21] = biological target: NEK3 (human) (UniProt P51956)
# Sequence of NEK3 (human) (P51956 whole entry, looked up): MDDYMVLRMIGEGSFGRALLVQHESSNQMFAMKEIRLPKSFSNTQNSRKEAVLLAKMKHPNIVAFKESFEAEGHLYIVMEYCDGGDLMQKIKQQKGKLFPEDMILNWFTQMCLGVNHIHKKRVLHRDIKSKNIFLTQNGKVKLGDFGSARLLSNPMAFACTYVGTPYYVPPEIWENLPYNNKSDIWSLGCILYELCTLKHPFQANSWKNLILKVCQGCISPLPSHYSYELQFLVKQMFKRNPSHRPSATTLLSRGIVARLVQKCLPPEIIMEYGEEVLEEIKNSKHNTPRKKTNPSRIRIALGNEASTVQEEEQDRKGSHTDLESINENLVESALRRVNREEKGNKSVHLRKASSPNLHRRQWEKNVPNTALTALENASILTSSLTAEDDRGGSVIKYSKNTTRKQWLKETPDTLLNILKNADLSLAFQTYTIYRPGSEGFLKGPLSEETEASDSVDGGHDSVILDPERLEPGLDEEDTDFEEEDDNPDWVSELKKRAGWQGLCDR
# [22] = biological target: JAK3 JH1 JH2 (human) (UniProt P52333)
# [23] = biological target: ADRBK2 (human) (UniProt P35626)
# [24] = biological target: BRSK1 (human) (UniProt Q8TDC3)
# Sequence of BRSK1 (human) (Q8TDC3 whole entry, looked up): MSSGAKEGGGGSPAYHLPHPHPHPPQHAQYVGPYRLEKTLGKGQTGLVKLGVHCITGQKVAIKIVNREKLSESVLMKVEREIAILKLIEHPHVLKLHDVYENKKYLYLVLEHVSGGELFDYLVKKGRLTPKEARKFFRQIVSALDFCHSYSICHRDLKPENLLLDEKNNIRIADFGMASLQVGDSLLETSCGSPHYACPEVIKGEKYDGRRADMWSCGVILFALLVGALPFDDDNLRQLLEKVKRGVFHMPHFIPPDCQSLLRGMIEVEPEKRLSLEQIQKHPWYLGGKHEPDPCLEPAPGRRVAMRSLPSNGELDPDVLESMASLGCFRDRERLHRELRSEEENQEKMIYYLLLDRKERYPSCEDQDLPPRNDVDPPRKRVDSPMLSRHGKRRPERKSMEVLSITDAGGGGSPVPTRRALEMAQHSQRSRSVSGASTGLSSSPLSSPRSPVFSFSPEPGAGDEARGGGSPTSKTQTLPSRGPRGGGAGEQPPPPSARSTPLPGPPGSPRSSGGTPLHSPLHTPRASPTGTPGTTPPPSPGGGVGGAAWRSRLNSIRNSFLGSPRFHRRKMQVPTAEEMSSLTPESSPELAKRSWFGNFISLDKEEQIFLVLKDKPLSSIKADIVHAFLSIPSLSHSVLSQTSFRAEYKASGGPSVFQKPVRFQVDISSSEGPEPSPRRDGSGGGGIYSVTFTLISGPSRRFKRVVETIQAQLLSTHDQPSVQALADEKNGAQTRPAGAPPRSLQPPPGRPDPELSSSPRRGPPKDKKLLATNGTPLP
# [25] = biological target: HIPK2 (human) (UniProt Q9H2X6)
# Sequence of HIPK2 (human) (Q9H2X6 whole entry, looked up): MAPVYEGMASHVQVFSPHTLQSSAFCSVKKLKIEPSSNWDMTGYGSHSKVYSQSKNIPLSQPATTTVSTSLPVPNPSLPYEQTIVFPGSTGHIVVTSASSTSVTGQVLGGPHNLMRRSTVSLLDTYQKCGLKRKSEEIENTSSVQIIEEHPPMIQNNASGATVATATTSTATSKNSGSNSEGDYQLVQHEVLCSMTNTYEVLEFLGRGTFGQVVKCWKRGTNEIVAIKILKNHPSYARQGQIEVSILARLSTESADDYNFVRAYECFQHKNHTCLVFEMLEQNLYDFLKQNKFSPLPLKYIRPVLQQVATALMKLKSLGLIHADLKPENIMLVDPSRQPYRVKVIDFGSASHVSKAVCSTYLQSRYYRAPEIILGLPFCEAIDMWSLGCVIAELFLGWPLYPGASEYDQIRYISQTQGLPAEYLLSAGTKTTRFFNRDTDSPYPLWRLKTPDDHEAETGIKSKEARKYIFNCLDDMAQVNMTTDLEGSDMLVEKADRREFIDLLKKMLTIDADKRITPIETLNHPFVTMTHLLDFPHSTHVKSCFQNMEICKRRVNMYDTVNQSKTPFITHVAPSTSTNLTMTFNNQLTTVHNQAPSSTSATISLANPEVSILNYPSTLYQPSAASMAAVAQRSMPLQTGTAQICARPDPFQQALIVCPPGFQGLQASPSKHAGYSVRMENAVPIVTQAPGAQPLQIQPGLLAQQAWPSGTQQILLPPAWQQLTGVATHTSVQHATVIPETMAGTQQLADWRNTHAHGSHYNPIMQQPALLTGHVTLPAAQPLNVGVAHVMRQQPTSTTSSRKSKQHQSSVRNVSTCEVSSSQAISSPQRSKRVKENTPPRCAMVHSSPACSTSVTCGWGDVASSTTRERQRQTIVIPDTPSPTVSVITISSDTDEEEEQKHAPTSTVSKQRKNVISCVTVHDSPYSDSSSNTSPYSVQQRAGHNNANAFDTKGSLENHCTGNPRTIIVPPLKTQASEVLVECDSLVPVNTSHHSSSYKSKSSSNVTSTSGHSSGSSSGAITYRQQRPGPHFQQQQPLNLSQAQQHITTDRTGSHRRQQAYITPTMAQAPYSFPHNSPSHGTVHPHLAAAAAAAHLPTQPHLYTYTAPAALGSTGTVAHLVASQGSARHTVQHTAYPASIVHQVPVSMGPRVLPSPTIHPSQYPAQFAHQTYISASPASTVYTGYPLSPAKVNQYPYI
# [26] = biological target: CDK2 CCNA2 (human) (UniProt P24941+P20248)
# [27] = biological target: CDC42BPB (human) (UniProt Q9Y5S2)
# [28] = biological target: MAPK9 (human) (UniProt P45984)
# [29] = biological target: AURKA (human) (UniProt O14965)
# [30] = biological target: EPHB3 (human) (UniProt P54753)
# [31] = biological target: MAPKAPK5 (human) (UniProt Q8IW41)
# [32] = biological target: NTRK1 (human) (UniProt P04629)
# [33] = biological target: CSNK1A1 (human) (UniProt P48729)
# [34] = biological target: PIM2 (human) (UniProt Q9P1W9)
# [35] = biological target: NLK (human) (UniProt Q9UBE8)
# [36] = biological target: GRK4 (human) (UniProt P32298)
# [37] = biological target: MAP3K8 (human) (UniProt P41279)
# Sequence of MAP3K8 (human) (P41279 whole entry, looked up): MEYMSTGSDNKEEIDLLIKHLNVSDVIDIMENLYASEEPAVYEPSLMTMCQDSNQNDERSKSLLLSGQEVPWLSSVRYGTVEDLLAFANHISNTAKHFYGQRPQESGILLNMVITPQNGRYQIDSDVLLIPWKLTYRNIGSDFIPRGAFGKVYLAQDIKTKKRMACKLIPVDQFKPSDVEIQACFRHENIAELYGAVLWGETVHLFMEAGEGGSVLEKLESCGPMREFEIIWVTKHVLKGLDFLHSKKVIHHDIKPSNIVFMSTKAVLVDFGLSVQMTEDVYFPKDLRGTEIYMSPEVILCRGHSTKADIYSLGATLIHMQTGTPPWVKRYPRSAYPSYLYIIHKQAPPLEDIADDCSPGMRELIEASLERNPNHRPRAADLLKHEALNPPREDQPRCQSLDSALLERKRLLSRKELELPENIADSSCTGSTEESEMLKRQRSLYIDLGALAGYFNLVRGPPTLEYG
# [38] = biological target: FLT1 (human) (UniProt P17948)
# [39] = biological target: STK33 (human) (UniProt Q9BYT3)
# Sequence of STK33 (human) (Q9BYT3 whole entry, looked up): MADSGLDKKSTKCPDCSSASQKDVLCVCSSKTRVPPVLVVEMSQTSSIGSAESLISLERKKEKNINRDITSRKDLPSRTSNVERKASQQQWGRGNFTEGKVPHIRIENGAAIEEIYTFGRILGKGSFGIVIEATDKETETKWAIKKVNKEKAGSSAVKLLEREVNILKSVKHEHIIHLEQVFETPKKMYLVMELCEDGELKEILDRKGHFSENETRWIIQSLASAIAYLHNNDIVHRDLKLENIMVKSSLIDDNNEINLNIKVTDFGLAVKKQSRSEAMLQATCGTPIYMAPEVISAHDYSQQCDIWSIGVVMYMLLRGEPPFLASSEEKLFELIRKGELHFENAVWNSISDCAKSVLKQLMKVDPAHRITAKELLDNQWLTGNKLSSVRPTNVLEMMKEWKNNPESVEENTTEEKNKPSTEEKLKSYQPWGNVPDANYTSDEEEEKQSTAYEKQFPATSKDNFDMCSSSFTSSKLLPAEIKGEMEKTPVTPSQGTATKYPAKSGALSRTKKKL
# [40] = biological target: RIPK2 (human) (UniProt O43353)
# [41] = biological target: KDR (human) (UniProt P35968)
# [42] = biological target: CSNK1G3 (human) (UniProt Q9Y6M4)
# Sequence of STK11 (human) (Q15831 whole entry, looked up): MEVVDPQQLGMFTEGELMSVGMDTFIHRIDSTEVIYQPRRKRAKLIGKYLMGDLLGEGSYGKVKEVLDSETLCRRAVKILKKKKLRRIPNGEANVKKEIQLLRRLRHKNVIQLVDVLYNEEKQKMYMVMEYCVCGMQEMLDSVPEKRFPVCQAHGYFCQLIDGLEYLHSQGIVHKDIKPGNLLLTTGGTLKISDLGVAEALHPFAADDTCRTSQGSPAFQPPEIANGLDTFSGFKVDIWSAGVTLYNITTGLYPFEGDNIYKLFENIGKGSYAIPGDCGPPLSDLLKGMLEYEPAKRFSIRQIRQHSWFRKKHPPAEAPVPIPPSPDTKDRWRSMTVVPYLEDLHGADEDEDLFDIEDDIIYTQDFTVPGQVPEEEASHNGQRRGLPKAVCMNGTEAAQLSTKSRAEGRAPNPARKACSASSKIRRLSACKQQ
# Sequence of PHKG2 (human) (P15735 whole entry, looked up): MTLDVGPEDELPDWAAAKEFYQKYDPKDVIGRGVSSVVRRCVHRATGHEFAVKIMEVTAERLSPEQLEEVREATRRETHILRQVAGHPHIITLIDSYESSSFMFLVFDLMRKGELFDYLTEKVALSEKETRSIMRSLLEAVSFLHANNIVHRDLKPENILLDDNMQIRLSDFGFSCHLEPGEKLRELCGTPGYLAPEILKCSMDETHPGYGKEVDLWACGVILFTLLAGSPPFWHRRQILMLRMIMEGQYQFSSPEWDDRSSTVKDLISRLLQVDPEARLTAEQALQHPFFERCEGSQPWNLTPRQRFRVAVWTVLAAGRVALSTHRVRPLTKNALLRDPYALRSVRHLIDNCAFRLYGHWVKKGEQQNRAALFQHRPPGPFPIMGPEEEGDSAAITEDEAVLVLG
compound,measurement,setting,value
O=C1Nc2ccccc2/C1=C\c1c(Cl)[nH]c2ccccc12,residual activity,[1],98.4%
same,residual activity,[2],109%
same,residual activity,[3],90.4%
same,residual activity,[4],84.2%
same,residual activity,[5],104%
same,residual activity,[6],83.4%
same,residual activity,[7],87.8%
same,residual activity,[8],93.4%
same,residual activity,[9],63.2%
same,residual activity,[10],107%
same,residual activity,[11],106%
same,residual activity,[12],86%
same,residual activity,[13],105%
same,residual activity,[14],94.7%
same,residual activity,[15],105%
same,residual activity,[16],91.4%
same,residual activity,[17],99.6%
same,residual activity,[18],89.1%
same,residual activity,[19],103%
same,residual activity,[20],88.2%
same,residual activity,[21],91.2%
same,residual activity,[22],102%
same,residual activity,[23],90.1%
same,residual activity,[24],91.9%
same,residual activity,[25],96.5%
same,residual activity,[26],91.5%
same,residual activity,[27],102%
same,residual activity,[28],101%
same,residual activity,[29],108%
same,residual activity,[30],91.3%
same,residual activity,[31],121%
same,residual activity,[32],90.7%
same,residual activity,[33],102%
same,residual activity,[34],106%
same,residual activity,[35],107%
same,residual activity,[36],102%
same,residual activity,[37],94.3%
same,residual activity,[38],88.6%
same,residual activity,[39],105%
same,residual activity,[40],85.4%
same,residual activity,[41],96.3%
same,residual activity,[42],92.8%

# Source: the kinase profiling compilation of Christmann-Franck et al. (2016)
